EPA's ToxRefDB 2

How the values were obtained:
[1] = test system: rat; details: Sub-acute dermal toxicity, sprague dawley, Topical, dose end: 21 day, group: systemic, systemic / in life observation / clinical signs / desquamation + systemic / in life observation / clinical signs / erythema + systemic / …
[2] = test system: dog; details: Chronic toxicity; beagle; Oral; Feed; dose end: 52 week; group: systemic; systemic / clinical chemistry / albumin / albumin + systemic / clinical chemistry / calcium / calcium + systemic / clinical chemistry / …
[3] = test system: rabbit; details: Prenatal developmental toxicity study, new zealand white, Dermal, Topical, dose end: 18 GD
[4] = test system: mouse; details: Subchronic oral toxicity in rodents, cd1, Feed, dose end: 13 week, group: systemic
[5] = test system: rat; details: Prenatal developmental toxicity study, fischer, Oral, Gavage/Intubation, dose end: 15 GD
[6] = test system: rat; details: Subchronic oral toxicity in rodents, other, Feed, dose end: 13 week, group: systemic, systemic / clinical chemistry / urea nitrogen / urea
[7] = test system: rabbit; details: Prenatal developmental toxicity study, new zealand white, Oral, Capsule, dose end: 18 GD
[8] = test system: rat; details: Subchronic oral toxicity in rodents, Feed, dose end: 13 week, group: systemic
[9] = test system: dog; details: Chronic toxicity, beagle, Oral, Capsule, dose end: 12 month
[10] = test system: dog; details: Subchronic oral toxicity in nonrodent, beagle, Capsule, dose end: 90 day
[11] = test system: mouse; details: Carcinogenicity, cd1, Oral, Feed, dose end: 102 week, group: systemic
[12] = test system: rat; details: Combined chronic toxicity/carcinogenicity, other, Oral, Feed, dose end: 104 week
[13] = test system: rat; details: Subchronic oral toxicity in rodents, sprague dawley, Feed, dose end: 13 week
[14] = test system: rat; details: Subchronic oral toxicity in rodents, sprague dawley, Water, dose end: 90 day, group: systemic
[15] = test system: rat; details: Sub-acute repeat dose toxicity; sprague dawley; Oral; Water; dose end: 14 day; group: systemic; systemic / in life observation / body weight / body weight + systemic / in life observation / food consumption / food consumption + systemic…
[16] = test system: mouse; details: Carcinogenicity, b6c3f1, Oral, Water, dose end: 104 week, group: systemic
[17] = test system: rat; details: Prenatal developmental toxicity study, long evans, Oral, Gavage/Intubation, dose end: 15 GD
[18] = group: developmental, developmental / developmental malformation / bone / supernumerary + developmental / developmental malformation / bone / unossified + …
[19] = group: maternal, systemic / in life observation / body weight / body weight gain
[20] = systemic / in life observation / body weight / body weight
[21] = systemic / in life observation / body weight / body weight + systemic / organ weight / liver / relative to body weight
[22] = group: developmental, developmental / developmental malformation / bone / ossification sites + developmental / developmental malformation / bone / supernumerary
[23] = group: maternal, systemic / in life observation / body weight / body weight
[24] = group: developmental, developmental / developmental malformation / bone / supernumerary + developmental / developmental malformation / gallbladder / [other] + …
[25] = group: maternal, reproductive / reproductive performance / aborted / aborted + reproductive / reproductive performance / postimplantation loss / …
[26] = group: maternal, systemic / in life observation / body weight / body weight + systemic / in life observation / body weight / body weight gain + systemic / in…
[27] = systemic / in life observation / body weight / body weight + systemic / clinical chemistry / urea nitrogen / urea + systemic / urinalysis / …
[28] = group: cholinesterase, cholinesterase / cholinesterase / cholinesterase / plasma cholinesterase (che)
[29] = group: systemic, systemic / clinical chemistry / alanine aminotransferase (alt/sgpt) / alanine aminotransferase (alt/sgpt)
[30] = group: systemic, systemic / clinical chemistry / alanine aminotransferase (alt/sgpt) / alanine aminotransferase (alt/sgpt) + systemic / hematology / …
[31] = group: cholinesterase, cholinesterase / cholinesterase / cholinesterase / plasma cholinesterase (che) + cholinesterase / cholinesterase / cholinesterase / brain …
[32] = group: systemic, systemic / pathology microscopic / adrenal gland / cytoplasmic alteration + systemic / pathology microscopic / adrenal gland / hypertrophy
[33] = systemic / pathology microscopic / adrenal gland / pigmentation
[34] = systemic / pathology microscopic / adrenal gland / pigmentation + systemic / in life observation / body weight / body weight + systemic / in…
[35] = group: cholinesterase, cholinesterase / cholinesterase / cholinesterase / erythrocyte cholinesterase (che)
[36] = group: systemic, systemic / hematology / erythrocyte (rbc) count differential / erythrocyte (rbc) + systemic / hematology / hematocrit (hct) / hematocrit (…
[37] = group: systemic, systemic / urinalysis / volume / volume
[38] = group: systemic, systemic / pathology microscopic / adrenal gland / vacuolization cytoplasmic
[39] = systemic / in life observation / water consumption / water consumption
[40] = systemic / in life observation / water consumption / water consumption + systemic / in life observation / body weight / body weight + …
[41] = systemic / pathology microscopic / liver / adenoma + systemic / pathology microscopic / liver / adenoma/carcinoma combined + systemic / …
[42] = systemic / pathology microscopic / liver / focal cellular change
[43] = group: developmental, developmental / developmental malformation / bone / [other] + developmental / developmental malformation / general / crown-rump length + …
[44] = group: developmental, developmental / developmental malformation / general / crown-rump length + developmental / developmental malformation / all gross anomalies…
[45] = group: maternal, reproductive / reproductive performance / implantations / implantations + reproductive / reproductive performance / postimplantation loss / …
[46] = group: maternal, systemic / organ weight / kidney / absolute + systemic / organ weight / spleen / absolute

## ClCCCCCCCl [1,6-Dichlorohexane]
[1]
  LEL: 100 mg/kg/day
  LOAEL: 100 mg/kg/day
  NEL: < 100 mg/kg/day
  NOAEL: < 100 mg/kg/day

## CCNc1nc(Cl)nc(NC(C)(C)C#N)n1 [Cyanazine]
[2]
  LEL: 3.02 mg/kg/day
  LOAEL: 3.02 mg/kg/day
  NEL: 0.72 mg/kg/day
  NOAEL: 0.72 mg/kg/day
[3]; group: developmental, developmental / developmental malformation / bone / supernumerary + developmental / developmental malformation / bone / unossified
  LOAEL: 955 mg/kg/day
[3]; [18]
  NEL: 286 mg/kg/day
  NOAEL: 573 mg/kg/day
[3]; group: developmental, systemic / in life observation / body weight / fetal weight
  LEL: 573 mg/kg/day
[3]; [19]
  LEL: 96 mg/kg/day
  LOAEL: 96 mg/kg/day
  NEL: < 96 mg/kg/day
  NOAEL: < 96 mg/kg/day
[4]; [20]
  LOAEL: 75 mg/kg/day
[4]; [21]
  LEL: 75 mg/kg/day
  NEL: 7.5 mg/kg/day
  NOAEL: 7.5 mg/kg/day
[5]; [22]
  LEL: 5 mg/kg/day
  LOAEL: 5 mg/kg/day
  NEL: < 5 mg/kg/day
  NOAEL: < 5 mg/kg/day
[5]; [23]
  LEL: 5 mg/kg/day
  LOAEL: 5 mg/kg/day
  NEL: < 5 mg/kg/day
  NOAEL: < 5 mg/kg/day
[6]
  LEL: 0.075 mg/kg/day
  LOAEL: 0.075 mg/kg/day
  NEL: < 0.075 mg/kg/day
  NOAEL: < 0.075 mg/kg/day
[7]; group: developmental, developmental / developmental malformation / bone / absent + developmental / developmental malformation / bone / supernumerary
  LOAEL: 2 mg/kg/day
[7]; group: developmental, developmental / developmental malformation / bone / absent + developmental / developmental malformation / bone / supernumerary + …
  NOAEL: 1 mg/kg/day
[7]; [24]
  LEL: 1 mg/kg/day
  NEL: < 1 mg/kg/day
[7]; [25]
  LOAEL: 2 mg/kg/day
  NOAEL: 1 mg/kg/day
[7]; [26]
  LEL: 1 mg/kg/day
  NEL: < 1 mg/kg/day
[8]; [20]
  LOAEL: 0.005 mg/kg/day
  NOAEL: < 0.005 mg/kg/day
[8]; [27]
  LEL: 0.005 mg/kg/day
  NEL: < 0.005 mg/kg/day

## CCOP(=O)(SC(C)CC)N1CCSC1=O (stereo not given) [Fosthiazate]
[9]; [28]
  LEL: 0.5 mg/kg/day
  LOAEL: 0.5 mg/kg/day
  NEL: 0.1 mg/kg/day
  NOAEL: 0.1 mg/kg/day
[9]; [29]
  LEL: 0.5 mg/kg/day
  LOAEL: 0.5 mg/kg/day
[9]; [30]
  NEL: 0.1 mg/kg/day
  NOAEL: 0.1 mg/kg/day
[10]; [28]
  LEL: 0.11 mg/kg/day
  LOAEL: 0.11 mg/kg/day
[10]; [31]
  NEL: 0.054 mg/kg/day
  NOAEL: 0.054 mg/kg/day
[10]; [32]
  LEL: 0.11 mg/kg/day
  LOAEL: 0.11 mg/kg/day
  NEL: 0.054 mg/kg/day
  NOAEL: 0.054 mg/kg/day
[11]; [33]
  LEL: 10.4 mg/kg/day
  LOAEL: 10.4 mg/kg/day
[11]; [34]
  NEL: 3.2 mg/kg/day
  NOAEL: 3.2 mg/kg/day
[12]; [35]
  LEL: 0.051 mg/kg/day
  LOAEL: 0.38 mg/kg/day
  NEL: < 0.051 mg/kg/day
[12]; group: cholinesterase, cholinesterase / cholinesterase / cholinesterase / erythrocyte cholinesterase (che) + cholinesterase / cholinesterase / cholinesterase / …
  NOAEL: 0.039 mg/kg/day
[12]; [36]
  LOAEL: 2.45 mg/kg/day
  NOAEL: 0.5 mg/kg/day
[12]; [37]
  LEL: 0.039 mg/kg/day
  NEL: < 0.039 mg/kg/day
[13]; [35]
  LEL: 0.09 mg/kg/day
  LOAEL: 0.09 mg/kg/day
  NEL: < 0.09 mg/kg/day
  NOAEL: < 0.09 mg/kg/day
[13]; [38]
  LEL: 0.08 mg/kg/day
  LOAEL: 0.08 mg/kg/day
  NEL: < 0.08 mg/kg/day
  NOAEL: < 0.08 mg/kg/day

## O=C(O)C(Cl)(Cl)Cl [Trichloroacetic acid]
[14]; [39]
  LEL: 4.1 mg/kg/day
  NEL: < 4.1 mg/kg/day
[14]; [40]
  LOAEL: > 355 mg/kg/day
  NOAEL: ≥ 355 mg/kg/day
[15]
  LEL: 119 mg/kg/day
  LOAEL: > 119 mg/kg/day
  NEL: 31.6 mg/kg/day
  NOAEL: ≥ 119 mg/kg/day
[16]; [41]
  LOAEL: > 572 mg/kg/day
  NOAEL: ≥ 572 mg/kg/day
[16]; [42]
  LEL: 6 mg/kg/day
  NEL: < 6 mg/kg/day
[17]; [43]
  LOAEL: > 1800 mg/kg/day
  NOAEL: ≥ 1800 mg/kg/day
[17]; [44]
  LEL: 330 mg/kg/day
  NEL: < 330 mg/kg/day
[17]; [45]
  LOAEL: > 1800 mg/kg/day
  NOAEL: ≥ 1800 mg/kg/day
[17]; [46]
  LEL: 330 mg/kg/day
  NEL: < 330 mg/kg/day
